Results taken from patent US20070128217A1 (priority 2003, published 2007).

Legend:
[1] = test system: control sera (pooled serum of ten healthy LUMC hospital workers; commercial negative donor pooled serum from the Dutch bloodbank); format: binding, human; parameters: Binding of Control serum LUMC to linear peptides / Binding of Control serum Blood-bank to linear peptides / Binding of Control serum LUMC to looped peptides / Binding of Control Serum Blood-Bank to Looped peptides / Binding of Control serum LUMC to linear peptides of the protein M of SARS-CoV Urbani / Binding of Control serum Blood-bank to linear peptides of the protein M of SARS-CoV Urbani / Binding of Control serum LUMC to looped peptides of the protein M of SARS-CoV Urbani / Binding of Control Serum Blood-Bank to Looped peptides of the protein M of SARS-CoV Urbani: unit not given here
[2] = test system: antibodies in sera from SARS patients (sera 1a, 1b, 2, 6, 37, 62, London, SARS-yellow, SARS-green); format: binding, human; parameters: Binding of serum 6 to linear peptides of protein X1 of SARS-CoV Urbani / Binding of serum 37 to linear peptides of protein X1 of SARS-CoV Urbani / Binding of serum 6 to looped/cyclic peptide (PEPSCAN-ELISA) / Binding of serum 37 to looped/cyclic peptide (PEPSCAN-ELISA) / Binding of serum 37 to looped/cyclic peptides of protein X1 of SARS-CoV Urbani / Binding of serum 6 to linear peptides of protein X2 / Binding of serum 37 to linear peptides of protein X2 / Binding of serum 37 to looped/cyclic peptides of protein X2 of SARS-CoV Urbani / Binding of serum 6 to linear peptides of protein M of SARS-CoV Urbani / Binding of serum 37 to linear peptides of protein M of SARS-CoV Urbani / Binding of serum 6 to looped/cyclic peptides of protein M of SARS-CoV Urbani / Binding of serum 37 to looped/cyclic peptides of protein M of SARS-CoV Urbani / Binding of serum 6 to linear peptides of protein X3 of SARS-CoV Urbani / Binding of serum 37 to linear peptides of protein X3 of SARS-CoV Urbani / Binding of serum 37 to looped/cyclic peptides of protein X3 of SARS-CoV Urbani / Binding of serum 6 to linear peptides of protein X4 of SARS-CoV Urbani / Binding of serum 37 to linear peptides of protein X4 of SARS-CoV Urbani / Binding of serum 37 to looped/cyclic peptides of protein X4 of SARS-CoV Urbani / Binding of serum 6 to linear peptides of protein X5 of SARS-CoV Urbani / Binding of serum 37 to linear peptides of protein X5 of SARS-CoV Urbani / Binding of serum 37 to looped/cyclic peptides of protein X5 of SARS-CoV Urbani / Binding of serum 6 to linear peptides of protein N of SARS-CoV Urbani / Binding of serum 37 to linear peptides of protein N of SARS-CoV Urbani / Binding of serum 6 to linear peptide (PEPSCAN-ELISA) / Binding of serum 1a to looped/cyclic peptides of protein N of SARS-CoV Urbani / Binding of serum 1b to looped/cyclic peptides of protein N of SARS-CoV Urbani / Binding of serum 2 to looped/cyclic peptides of protein N of SARS-CoV Urbani / Binding of serum 6 to looped/cyclic peptides of protein N of SARS-CoV Urbani / Binding of serum 37 to looped/cyclic peptides of protein N of SARS-CoV Urbani / Binding of serum 62 to looped/cyclic peptides of protein N of SARS-CoV Urbani / Binding of serum London to looped/cyclic peptides of protein N of SARS-CoV Urbani / Binding of serum SARS-green to looped/cyclic peptides of protein N of SARS-CoV Urbani: unit not given here
[3] = test system: rabbit serum obtained by immunizing a rabbit with the SARS-CoV strain Frankfurt 1; format: binding; parameters: Binding of a rabbit serum to linear peptides / Binding of a rabbit serum to looped peptides / Rabbit serum linear peptides / Rabbit serum looped peptides / Binding of a rabbit serum to linear peptides of protein N of SARS-CoV Urbani (Rabbit serum linear peptides) / Binding of a rabbit serum to looped/cyclic peptides of protein N of SARS-CoV Urbani (Rabbit serum looped peptides): unit not given here

Sequence: ACFVLAAVYRINWVT
- Binding of Control Serum Blood-Bank to Looped peptides of the protein M of SARS-CoV Urbani [1]: 0.7
- Binding of Control serum Blood-bank to linear peptides of the protein M of SARS-CoV Urbani [1]: 0.7
- Binding of Control serum LUMC to linear peptides of the protein M of SARS-CoV Urbani [1]: 0.3
- Binding of Control serum LUMC to looped peptides of the protein M of SARS-CoV Urbani [1]: 0.7
- Binding of serum 1a to linear peptides of protein M of SARS-CoV Urbani [2]: 0.7
- Binding of serum 1a to looped/cyclic peptides of protein M of SARS-CoV Urbani [2]: 0.7
- Binding of serum 1b to linear peptides of protein M of SARS-CoV Urbani [2]: 0.6
- Binding of serum 1b to looped/cyclic peptides of protein M of SARS-CoV Urbani [2]: 0.7
- Binding of serum 2 to linear peptides of protein M of SARS-CoV Urbani [2]: 0.5
- Binding of serum 2 to looped/cyclic peptides of protein M of SARS-CoV Urbani [2]: 0.5
- Binding of serum 6 to linear peptides of protein M of SARS-CoV Urbani [2]: 0.3
- Binding of serum 6 to looped/cyclic peptides of protein M of SARS-CoV Urbani [2]: 1.0
- Binding of serum 37 to linear peptides of protein M of SARS-CoV Urbani [2]: 0.8
- Binding of serum 37 to looped/cyclic peptides of protein M of SARS-CoV Urbani [2]: 0.7
- Binding of serum 62 to linear peptides of protein M of SARS-CoV Urbani [2]: 0.9
- Binding of serum 62 to looped/cyclic peptides of protein M of SARS-CoV Urbani [2]: 0.6
- Binding of serum London to linear peptides of protein M of SARS-CoV Urbani [2]: 0.3
- Binding of serum London to looped/cyclic peptides of protein M of SARS-CoV Urbani [2]: 0.3
- Binding of serum SARS-green to linear peptides of protein M of SARS-CoV Urbani [2]: 0.3
- Binding of serum SARS-green to looped/cyclic peptides of protein M of SARS-CoV Urbani [2]: 0.3
- Binding of serum SARS-yellow to linear peptides of protein M of SARS-CoV Urbani [2]: 0.0
- Binding of serum SARS-yellow to looped/cyclic peptides of protein M of SARS-CoV Urbani [2]: 0.5
- Rabbit serum linear peptides [3]: 0.4
- Rabbit serum looped peptides [3]: 0.3

Sequence: LYIIKLVFLWLLWPV
- Binding of Control Serum Blood-Bank to Looped peptides of the protein M of SARS-CoV Urbani [1]: 0.7
- Binding of Control serum Blood-bank to linear peptides of the protein M of SARS-CoV Urbani [1]: 0.7
- Binding of Control serum LUMC to linear peptides of the protein M of SARS-CoV Urbani [1]: 0.7
- Binding of Control serum LUMC to looped peptides of the protein M of SARS-CoV Urbani [1]: 0.6
- Binding of serum 1a to linear peptides of protein M of SARS-CoV Urbani [2]: 0.8
- Binding of serum 1a to looped/cyclic peptides of protein M of SARS-CoV Urbani [2]: 0.6
- Binding of serum 1b to linear peptides of protein M of SARS-CoV Urbani [2]: 0.6
- Binding of serum 1b to looped/cyclic peptides of protein M of SARS-CoV Urbani [2]: 0.5
- Binding of serum 2 to linear peptides of protein M of SARS-CoV Urbani [2]: 0.6
- Binding of serum 2 to looped/cyclic peptides of protein M of SARS-CoV Urbani [2]: 0.5
- Binding of serum 6 to linear peptides of protein M of SARS-CoV Urbani [2]: 0.4
- Binding of serum 6 to looped/cyclic peptides of protein M of SARS-CoV Urbani [2]: 0.7
- Binding of serum 37 to linear peptides of protein M of SARS-CoV Urbani [2]: 0.4
- Binding of serum 37 to looped/cyclic peptides of protein M of SARS-CoV Urbani [2]: 0.6
- Binding of serum 62 to linear peptides of protein M of SARS-CoV Urbani [2]: 0.4
- Binding of serum 62 to looped/cyclic peptides of protein M of SARS-CoV Urbani [2]: 0.6
- Binding of serum London to linear peptides of protein M of SARS-CoV Urbani [2]: 0.3
- Binding of serum London to looped/cyclic peptides of protein M of SARS-CoV Urbani [2]: 0.2
- Binding of serum SARS-green to linear peptides of protein M of SARS-CoV Urbani [2]: 0.5
- Binding of serum SARS-green to looped/cyclic peptides of protein M of SARS-CoV Urbani [2]: 0.3
- Binding of serum SARS-yellow to linear peptides of protein M of SARS-CoV Urbani [2]: 0.2
- Binding of serum SARS-yellow to looped/cyclic peptides of protein M of SARS-CoV Urbani [2]: 0.3
- Rabbit serum linear peptides [3]: 0.1
- Rabbit serum looped peptides [3]: 0.3
